Assay [1] relates to MLKL phosphorylation in HT29-L23 human colorectal adenocarcinoma cells. Briefly: MLKL Phosphorylation High-Content Assay. It counts as cell-based. As to conditions: Homo sapiens. A digest of the protocol: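 IC50 and Ymax obtained by 4-parameter logistic fitting of MLKL phosphorylation, measured as mean circ-ring average intensity ratio from high-content images. Staining used an anti-phospho-S358 MLKL antibody overnight at 4° C., following six-hour cell incubation at 37° C.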

Assay [2] deals with T1, His-GST-TVMV-hRIPK1(1-324) (Homo sapiens, UniProt Q13546).
T1 construct: The coding region of human RIPK1(1-324) flanked by NdeI site at 5′ end; made in house; host or cells: Spodoptera frugiperda (Sf9) insect cells, baculovirus
T1 sequence (Q13546 1-324): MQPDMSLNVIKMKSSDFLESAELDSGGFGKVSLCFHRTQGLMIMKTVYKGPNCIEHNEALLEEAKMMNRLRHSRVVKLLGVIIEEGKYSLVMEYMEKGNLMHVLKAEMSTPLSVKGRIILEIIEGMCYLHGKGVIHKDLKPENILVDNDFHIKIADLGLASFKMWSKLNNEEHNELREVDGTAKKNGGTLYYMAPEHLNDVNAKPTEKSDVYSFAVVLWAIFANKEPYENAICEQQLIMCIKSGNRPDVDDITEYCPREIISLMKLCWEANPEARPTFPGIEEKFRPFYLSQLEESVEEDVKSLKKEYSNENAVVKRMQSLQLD
In words: RIPK1 HTRF Binding Assay. (TR-FRET usually uses a lanthanide donor and a delayed reading to cut background.)

Setting [3] is: x marks IC50 class 20-200 nM, read-out: pMLKL cell activity 20-200 nM.
[4] abbreviates: x marks IC50 class 20-200 nM, read-out: RIPK1 HTRF binding 20-200 nM.
The mark [5] stands for this setting: x marks IC50 class <20 nM, read-out: RIPK1 HTRF binding <20 nM.

Structures are written as SMILES. Where two headings read alike, the source gives them in different places. A value given as a limit tells only on which side of the number the result lay.

This is an account of results in patent publication US10913738B2 (BRISTOL-MYERS SQUIBB COMPANY, priority 2017, dated 2021).

With `Cc1nc(C)c(-c2ccn3nc(N)nc3c2)cc1C(=O)NCc1cc(F)cc(F)c1OC1CC(C)OC(C)C1` (centres unmarked) [Example 297, 5-(2-amino-[1,2,4]triazolo[1,5-a]pyridin-7-yl)-N-(2-((2,6-dimethyltetrahydro-2H-pyran-4-yl)oxy)-3,5-difluorobenzyl)-2,6-dimethylnicotinamide], the IC50 in assay [1] (setting [3]) and in assay [2] (setting [4]) was 20 to 200 nM in each case.

`COc1nc(C)c(-c2ccn3nc(N)nc3c2)cc1C(=O)NCc1ccccc1COC(C)C` [Example 330, 5-(2-amino-[1,2,4]triazolo[1,5-a]pyridin-7-yl)-N-(2-(isopropoxymethyl)benzyl)-2-methoxy-6-methylnicotinamide]: the IC50 is 20 to 200 nM in assay [1] (setting [3]) and less than 20 nM in assay [2] (setting [5]).

`Cc1ncc(-c2ccn3nc(N)nc3c2)cc1C(=O)N(C)[C@H](C)c1cc(OC(F)(F)F)ccc1F` [Example 318, (R)-5-(2-amino-[1,2,4]triazolo[1,5-a]pyridin-7-yl)-N-(1-(2-fluoro-5-(trifluoromethoxy)phenyl)ethyl)-N,2-dimethylnicotinamide]: the IC50 in assay [1] (setting [3]) was 20 to 200 nM; in assay [2] (x marks IC50 class >200 nM, read-out: RIPK1 HTRF binding >200 nM), more than 200 nM.

As to `Cc1cnc(-c2ccn3nc(N)nc3c2)nc1C(=O)NCC[C@@H](O)c1ccc(Cl)cc1` [Example 408, (R)-2-(2-amino-[1,2,4]triazolo[1,5-a]pyridin-7-yl)-N-(3-(4-chlorophenyl)-3-hydroxypropyl)-5-methylpyrimidine-4-carboxamide], the IC50 in assay [1] (setting [3]) and in assay [2] (setting [4]) was 20 to 200 nM in each case.

Regarding `COc1ncc(-c2ccn3nc(N)nc3c2)cc1C(=O)NCc1ccccc1OCC(C)C` [Example 340, 5-(2-amino-[1,2,4]triazolo[1,5-a]pyridin-7-yl)-N-(2-isobutoxybenzyl)-2-methoxynicotinamide], the IC50 in assay [1] (setting [3]) is 20 to 200 nM; in assay [2] (setting [5]), less than 20 nM.

In the case of `[2H]C([2H])([2H])Oc1ncc(-c2ccn3nc(N)nc3c2)cc1C(=O)N[C@H](C)c1cc(OC(F)(F)F)ccc1F` [Example 285, (R)-5-(2-amino-[1,2,4]triazolo[1,5-a]pyridin-7-yl)-N-(1-(2-fluoro-5-(trifluoromethoxy)phenyl)ethyl)-2-(methoxy-d3)nicotinamide], the IC50 in assay [1] (setting [3]) and in assay [2] (setting [4]) was 20 to 200 nM each time.

In the case of `Cc1ncc(-c2ccn3nc(N)nc3c2)cc1C(=O)NCc1cc(F)cc(F)c1OC1CC(C)OC(C)C1` (centres unmarked) [Example 315, 5-(2-amino-[1,2,4]triazolo[1,5-a]pyridin-7-yl)-N-(2-((2,6-dimethyltetrahydro-2H-pyran-4-yl)oxy)-3,5-difluorobenzyl)-2-methylnicotinamide], the IC50 in assay [1] (setting [3]) and in assay [2] (setting [4]) was 20 to 200 nM in each case.

For the molecule `COc1ncc(-c2ccn3nc(N)nc3c2)cc1C(=O)NCc1c(F)cccc1OCC1CC1` [Example 147, 5-{2-amino-[1,2,4]triazolo[1,5-a]pyridin-7-yl}-N-{[2-(cyclopropylmethoxy)-6-fluorophenyl]methyl}-2-methoxypyridine-3-carboxamide], the IC50 in assay [1] (x marks IC50 class <20 nM, read-out: pMLKL cell activity <20 nM) is less than 20 nM; in assay [2] (setting [5]) it was less than 20 nM.

Turning to `COc1ncc(-c2ccn3nc(N)nc3c2)cc1C(=O)NCc1ccccc1OCC1CCCC1` [Example 138, 5-{2-amino-[1,2,4]triazolo[1,5-a]pyridin-7-yl}-N-{[2-(cyclopentylmethoxy)phenyl]methyl}-2-methoxypyridine-3-carboxamide], the results for the IC50 in assay [1] (setting [3]) and in assay [2] (setting [5]) were 20 to 200 nM and less than 20 nM, respectively.

`[2H]C([2H])([2H])Oc1nc(C)c(-c2ccn3nc(N)nc3c2)cc1C(=O)NC(C)c1cc(OC(F)(F)F)ccc1F` (single isomer, unassigned) [Example 97-1, 5-{2-amino-[1,2,4]triazolo[1,5-a]pyridin-7-yl}-N-{1-[2-fluoro-5-(trifluoromethoxy)phenyl]ethyl}-2-(deutero)methoxy-6-methylpyridine-3-carboxamide]: the IC50 in assay [1] (setting [3]) and in assay [2] (setting [4]) was 20 to 200 nM each time.
